Reference: ChEMBL document CHEMBL1133238, “Structure-activity relationships of neuropeptide Y Y1 receptor antagonists related to BIBP 3226” (Bioorg Med Chem Lett, 2000)
pIC50: −log10 of the molar value. Values belong to the molecule of their own block, whether it stands above or below them.

Columns and labels:
[1] = target: T1, Neuropeptide Y receptor type 1 (Homo sapiens, UniProt P25929); assay: NPY Y1-antagonistic activity in HEL cells by measuring the inhibition of porcine NPY (10 nM) stimulated increase in the intracellular [Ca2+] concentration in a FURA-assay.; assay type: functional, cell-based; conditions: for pIC50: read-out: IC50; for IC50: hel
T1 sequence (P25929 whole entry): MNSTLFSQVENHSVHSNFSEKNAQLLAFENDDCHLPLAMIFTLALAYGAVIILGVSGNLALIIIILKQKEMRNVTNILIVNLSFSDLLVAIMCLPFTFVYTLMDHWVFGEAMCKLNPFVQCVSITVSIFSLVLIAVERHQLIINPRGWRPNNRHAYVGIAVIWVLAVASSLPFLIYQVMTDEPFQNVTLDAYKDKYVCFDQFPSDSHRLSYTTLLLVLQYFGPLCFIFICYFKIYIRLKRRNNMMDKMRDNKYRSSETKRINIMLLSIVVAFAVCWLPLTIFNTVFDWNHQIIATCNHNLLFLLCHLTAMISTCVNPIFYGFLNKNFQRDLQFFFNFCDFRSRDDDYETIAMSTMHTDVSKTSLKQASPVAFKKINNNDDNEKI

[2] = target: T2, Neuropeptide Y receptor type 2 (Homo sapiens, UniProt P49146); assay: Inhibition of binding of [3H]propionyl-NPY (1 nM) to Neuropeptide Y receptor type 2 in SMS-KAN cell membranes
T2 sequence (P49146 whole entry): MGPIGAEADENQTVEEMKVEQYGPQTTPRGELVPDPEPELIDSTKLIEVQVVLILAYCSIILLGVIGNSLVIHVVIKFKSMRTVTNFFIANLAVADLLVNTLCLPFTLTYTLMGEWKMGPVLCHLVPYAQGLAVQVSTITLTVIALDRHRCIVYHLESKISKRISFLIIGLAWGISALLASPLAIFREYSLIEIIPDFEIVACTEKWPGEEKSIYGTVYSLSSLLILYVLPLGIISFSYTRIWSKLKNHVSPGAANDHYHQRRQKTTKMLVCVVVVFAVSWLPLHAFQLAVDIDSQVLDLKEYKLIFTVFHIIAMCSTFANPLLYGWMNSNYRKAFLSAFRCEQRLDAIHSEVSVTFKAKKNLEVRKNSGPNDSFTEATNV

[3] = target: T3, Neuropeptide Y receptor type 5 (Homo sapiens, UniProt Q15761); assay: Inhibition of binding of [3H]propionyl-NPY (1 nM) to Neuropeptide Y receptor type 5 in HEC-1-B cells; assay type: cell-based
T3 sequence (Q15761 whole entry): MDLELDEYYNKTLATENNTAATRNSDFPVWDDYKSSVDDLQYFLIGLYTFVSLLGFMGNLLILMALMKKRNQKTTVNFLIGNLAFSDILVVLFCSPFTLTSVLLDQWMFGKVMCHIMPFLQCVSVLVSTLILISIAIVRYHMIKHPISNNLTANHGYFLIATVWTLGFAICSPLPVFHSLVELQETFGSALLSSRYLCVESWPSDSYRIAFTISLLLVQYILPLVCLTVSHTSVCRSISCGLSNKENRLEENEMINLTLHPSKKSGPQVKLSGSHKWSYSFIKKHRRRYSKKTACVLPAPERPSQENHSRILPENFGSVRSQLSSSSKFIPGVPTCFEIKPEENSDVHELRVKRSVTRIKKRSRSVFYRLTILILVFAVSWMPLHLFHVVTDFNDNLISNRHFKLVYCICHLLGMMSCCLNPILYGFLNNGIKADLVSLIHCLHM

[4] = target: T1, Neuropeptide Y receptor type 1; assay: Inhibition of binding of [3H]propionyl-NPY (1 nM) to Neuropeptide Y receptor type 1 in SK-N-MC cells; assay type: cell-based
[5] = target: Neuropeptide Y receptor type 1 (Homo sapiens) (UniProt P25929); assay: NPY Y1-antagonistic activity in HEL cells by measuring the inhibition of porcine NPY (10 nM) stimulated increase in the intracellular [Ca2+] concentration in a FURA-assay;Inactive, less than 20% inhibition at […]

SMILES: N=C(NCCCc1ccccc1)NCCCC(NC(=O)Cc1ccc(-c2ccccc2)cc1)C(=O)N1CCCc2cc(O)ccc2C1 (configuration not stated)
pIC50 [1]: 4.92
pIC50 [2]: 4.11
pIC50 [3]: 6.11
pIC50 [4]: 4.66

SMILES: N=C(N)NCCCC(NC(=O)Cc1ccc(-c2ccccc2)cc1)C(=O)N[C@H]1CCc2ccccc21 (some centres not stated)
IC50 [1]: Not Active

SMILES: N=C(N)NCCCC(NC(=O)C(c1ccccc1)c1ccccc1)C(=O)N[C@@H]1CCc2ccccc21 (some centres not stated)
pIC50 [1]: 4.68

SMILES: N=C(N)NCCCC(NC(=O)C(c1ccccc1)c1ccccc1)C(=O)N[C@@H](C(N)=O)c1ccc(O)cc1 (some centres not stated)
pIC50 [1]: 5.09

SMILES: N=C(NCCCc1ccccc1)NCCCC(NC(=O)Cc1ccc(-c2ccccc2)cc1)C(=O)N1CCCc2ccccc2C1 (configuration not stated)
IC50 [1]: Not Active

SMILES: N=C(N)NCCCC(NC(=O)C(c1ccccc1)(c1ccccc1)c1ccccc1)C(=O)NCc1ccccc1 (configuration not stated)
IC50 [5]: Not Active

SMILES: N=C(N)NCCCC(NC(=O)Cc1ccc(-c2ccccc2)cc1)C(=O)NCc1ccccc1 (configuration not stated)
pIC50 [1]: 4.66

SMILES: N=C(N)NCCCC(NC(=O)C(c1ccccc1)c1ccccc1)C(=O)NCCc1ccccn1 (configuration not stated)
pIC50 [1]: 4.94

SMILES: N=C(N)NCCCC(NC(=O)C(c1ccccc1)c1ccc(Cl)cc1)C(=O)N[C@H]1CCc2ccccc21 (some centres not stated)
pIC50 [1]: 5.52
pIC50 [2]: 4.23
pIC50 [3]: 4.92
pIC50 [4]: 5.28

SMILES: N=C(N)NCCCC(NC(=O)Cc1ccc(-c2ccccc2)cc1)C(=O)N1CCCc2ccccc2C1 (configuration not stated)
pIC50 [1]: 4.12

SMILES: N=C(N)NCCCC(NC(=O)C(c1ccccc1)c1ccccc1)C(=O)N[C@@H](C(N)=O)c1ccccc1 (some centres not stated)
pIC50 [1]: 5.34
pIC50 [2]: < 3.40
pIC50 [3]: 3.79
pIC50 [4]: 5.62

SMILES: N=C(N)NCCCC(NC(=O)C(c1ccccc1)(c1ccccc1)c1ccccc1)C(=O)N1CCCc2ccccc2C1 (configuration not stated)
pIC50 [1]: 4.29

SMILES: N=C(N)NCCCC(NC(=O)C(c1ccccc1)c1ccccc1)C(=O)N[C@@H]1C[C@H](CO)c2ccccc21 (some centres not stated)
IC50 [5]: Not Active

SMILES: N=C(N)NCCCC(NC(=O)C(c1ccc(Cl)cc1)c1ccc(Cl)cc1)C(=O)N[C@H]1CCc2ccccc21 (some centres not stated)
pIC50 [1]: < 5.00

SMILES: N=C(N)NCCCC(NC(=O)C(c1ccccc1)c1ccccc1)C(=O)N[C@H](C(N)=O)c1ccccc1 (some centres not stated)
pIC50 [1]: 5.12

SMILES: N=C(N)NCCCC(NC(=O)C(c1ccccc1)c1ccccc1)C(=O)NCc1ccccn1 (configuration not stated)
pIC50 [1]: 5.43

SMILES: N=C(N)NCCCC(NC(=O)C(c1ccccc1)c1ccccc1)C(=O)N[C@@H](CO)c1ccccc1 (some centres not stated)
pIC50 [1]: 4.65

SMILES: N=C(N)NCCCC(NC(=O)C(c1ccccc1)c1ccccc1)C(=O)NCc1ccc(O)cc1 (configuration not stated)
pIC50 [2]: < 4.00
pIC50 [3]: 4.10

SMILES: N=C(N)NCCCC(NC(=O)C(c1ccccc1)c1ccccc1)C(=O)NCC1CCCCN1 (racemic)
IC50 [5]: Not Active

Next, values leading:

pIC50 [1]: 6.96
SMILES: N=C(N)NCCCC(NC(=O)C(c1ccccc1)c1ccccc1)C(=O)NCc1ccccc1 (configuration not stated)

pIC50 [1]: 5.85
SMILES: N=C(N)NCCCC(NC(=O)C(c1ccccc1)c1ccccc1)C(=O)N[C@H]1CCc2ccccc21 (some centres not stated)

pIC50 [1]: 5.96
SMILES: N=C(N)NCCCC(NC(=O)C(c1ccc(Cl)cc1)c1ccc(Cl)cc1)C(=O)N1CCCc2ccccc2C1 (configuration not stated)

pIC50 [1]: 7.09
pIC50 [2]: 4.01
pIC50 [3]: 5.59
pIC50 [4]: 6.77
SMILES: N=C(N)NCCCC(NC(=O)C(c1ccccc1)c1ccc(Cl)cc1)C(=O)NCc1ccccc1 (configuration not stated)

pIC50 [1]: 6.70
pIC50 [2]: 3.75
pIC50 [3]: 4.32
pIC50 [4]: 6.82
SMILES: C[C@@H](NC(=O)C(CCCNC(=N)N)NC(=O)C(c1ccccc1)c1ccccc1)c1ccccc1 (some centres not stated)

pIC50 [1]: 7.00
SMILES: N=C(N)NCCCC(NC(=O)C(c1ccc(Cl)cc1)c1ccc(Cl)cc1)C(=O)NCc1ccccc1 (configuration not stated)

pIC50 [1]: 6.05
pIC50 [2]: 3.27
pIC50 [3]: 4.17
pIC50 [4]: 6.74
SMILES: N=C(N)NCCCC(NC(=O)C(c1ccccc1)c1ccccc1)C(=O)N[C@H](CO)c1ccccc1 (some centres not stated)

pIC50 [1]: 6.55
pIC50 [2]: 3.61
pIC50 [3]: 4.60
pIC50 [4]: 6.17
SMILES: N=C(N)NCCCC(NC(=O)C(c1ccccc1)c1ccccc1)C(=O)N1CCCc2cc(O)ccc2C1 (configuration not stated)

pIC50 [1]: 5.60
SMILES: C[C@H](NC(=O)C(CCCNC(=N)N)NC(=O)C(c1ccccc1)c1ccccc1)c1ccccc1 (some centres not stated)

pIC50 [1]: 5.96
SMILES: N=C(N)NCCCC(NC(=O)C(c1ccccc1)c1ccc(Cl)cc1)C(=O)N1CCCc2ccccc2C1 (configuration not stated)

pIC50 [1]: 5.66
SMILES: N=C(N)NCCCC(NC(=O)C(c1ccccc1)c1ccccc1)C(=O)N1CCCc2ccccc2C1 (configuration not stated)

pIC50 [1]: 7.22
pIC50 [2]: 3.24
pIC50 [3]: 4.12
pIC50 [4]: 7.72
SMILES: CC(NC(=O)C(CCCN=C(N)N)NC(=O)C(c1ccccc1)c1ccccc1)c1ccc(O)cc1 (racemic)

pIC50 [1]: 6.00
SMILES: N=C(N)NCCCC(NC(=O)C(c1ccccc1)c1ccccc1)C(=O)NC1CCc2cc(O)ccc21 (racemic)
